“And” between values parts separate entries of the source, which are not always exact repeats. Equal values may be shown once. “Also recorded” adds a separate entry of the source. Read-outs that look alike come from different tables or passages of the source.
Assays:
human norovirus (HuNoV) = test: Inhibition of in vitro replication of genogroup 1 NoV in HG23 NoV replicon cells (qRT-PCR of intracellular RNA); type: cell-based; settings: for inhibitory activity against human norovirus (in words): HuNoV assay
murine norovirus (MNV) = settings: read-out: EC50 murine norovirus (MNV) polymerase; cited from earlier work
HuNoV = settings: human B cell BJAB cell line; read-out: EC50 HuNoV replication; cited from earlier work
[1] = Cytotoxicity (CC50) determined in parallel in uninfected cells (β-actin toxicity); settings: human
HCV [2] = settings: read-out: EC50 HCV in cell cultures; cited from earlier work
HCV [3] = settings: anti-HCV in vitro; cited from earlier work
poliovirus (PV) = settings: read-out: IC50 poliovirus (PV) replication; cited from earlier work
dengue virus (DENV2) = settings: read-out: IC50 dengue virus (DENV2) replication; cited from earlier work
uninfected cells [4] = test: Cytotoxicity (CC50) determined in parallel in uninfected cells (β-actin toxicity); settings: HuNoV assay
[5] = system: Influenza A virus strain California/07/2009; test: Inhibition of in vitro replication of Influenza A virus; type: cell-based; settings: for EC50: Influenza A virus strain California/07/2009
[6] = system: MERS Coronavirus strain EMC; test: microbe, parasite or virus in culture; type: cell-based
in vitro = settings: human
uninfected cells [7] = system: uninfected cells
norovirus = settings: read-out: EC50 norovirus replication; cited from earlier work
[8] = Norovirus, HG23, HuNoV, HG23 NoV replicon cells, read-out: EC50 (effective concentration to inhibit the replication of the virus by 50%)
[9] = Norovirus, HuNoV, HG23 NoV replicon cells, read-out: EC90 (effective concentration to inhibit the replication of the virus by 90%)
[10] = Norovirus, HG23, read-out: EC50 (effective concentration to inhibit the replication of the virus by 50%), HuNoV, HG23 NoV replicon cells
[11] = HuNoV, HG23 NoV replicon cells, read-out: EC50 (effective concentration to inhibit the replication of the virus by 50%)
[12] = HuNoV, HG23 NoV replicon cells, read-out: EC90 (effective concentration to inhibit the replication of the virus by 90%)

Compound: C[C@@]1(O)[C@H](O)[C@@H](CO)O[C@H]1n1ccc(N)nc1=O [2’Cmethyl Cytidine, 2′-C-Methyl-cytidine, reference compound]
- EC50 (human norovirus (HuNoV); [8]): 2.63 µM
- EC90 (human norovirus (HuNoV); [9]): 13.8 µM
- EC50 (murine norovirus (MNV)): 2 µM
- EC50 (HuNoV): 0.3 µM
- CC50 ([1]; uninfected cells): > 25 µM

Compound: C[C@@]1(O)[C@H](O)[C@@H](CO)O[C@H]1c1ccc2c(N)ncnn12 [2′-C-methyl-4-aza-7,9-dideazaadenosine]
- EC50 (HCV [2]): 1.98 µM

Compound: C[C@@]1(O)[C@H](O)[C@@H](CO)O[C@H]1c1cc(C(N)=O)c2c(N)ncnn12 [7-carboamido analogue 2]
- improvement in potency relative to the parent compound 1 (HCV [3]): 40 fold

Compound: Cc1ncnc2c1ccn2[C@@H]1O[C@H](CO)[C@@H](O)[C@H]1O [Compound 3]
- IC50 (poliovirus (PV)): 0.011 µM
- IC50 (dengue virus (DENV2)): 0.039 µM

Compound: Cc1ccc(-c2ncnc3c2ccn3[C@@H]2O[C@H](CO)[C@@H](O)[C@H]2O)cc1 [Compound 11a, 6-(4-Methylphenyl)-9-β-D-ribofuranosyl-7-deazapurine]
- EC90 (human norovirus (HuNoV); [9]): > 100 µM
- CC50 ([1]; uninfected cells): > 100 µM

Compound: Cc1ncnc2c1ccn2[C@@H]1O[C@H](CO)[C@@H](O)[C@H]1O [Compound 11b, 6-Methyl-9-β-D-ribofuranosyl-7-deazapurine]
- inhibitory activity against human norovirus (in words) (human norovirus (HuNoV)): good activity
- EC50 (human norovirus (HuNoV); [10]): 0.012 µM
- EC90 (human norovirus (HuNoV); [9]): 0.068 µM
- CC50 ([1]; uninfected cells): 0.53 µM

Compound: CC(C)c1ncnc2c1ccn2[C@@H]1O[C@H](CO)[C@@H](O)[C@H]1O [Compound 11c, 6-Isopropyl-9-β-D-ribofuranosyl-7-deazapurine]
- inhibitory activity against human norovirus (in words) (human norovirus (HuNoV)): potent activity
- EC50 (human norovirus (HuNoV); [10]): 0.024 µM
- EC90 (human norovirus (HuNoV); [9]): 2.69 µM
- CC50 ([1]; uninfected cells): > 100 µM
- cytotoxicity (in words) (uninfected cells [4]): did not display significant cytotoxicity; also recorded: without significant cytotoxicity

Compound: CCc1ncnc2c1ccn2[C@@H]1O[C@H](CO)[C@@H](O)[C@H]1O [Compound 11d, 6-Ethyl-9-β-D-ribofuranosyl-7-deazapurine]
- EC50 (human norovirus (HuNoV); [10]): 0.023 µM
- EC90 (human norovirus (HuNoV); [9]): 0.495 µM
- inhibitory activity against Influenza A virus (in words) [5]: moderate inhibitory activity
- EC50 [5]: 0.42 µM
- inhibitory activity against MERS Coronavirus (in words) [6]: moderate inhibitory activity
- EC50 ([6]; Middle East respiratory syndrome-related coronavirus): 9.2 µM
- CC50 (in vitro): > 100 µM
- CC50 [1]: 10.2 µM
- cytotoxicity (in words) (uninfected cells [4]): did not display significant cytotoxicity

Compound: CCCc1ncnc2c1ccn2[C@@H]1O[C@H](CO)[C@@H](O)[C@H]1O [Compound 11e, 6-Propyl-9-β-D-ribofuranosyl-7-deazapurine]
- inhibitory activity against human norovirus (in words) (human norovirus (HuNoV)): potent activity
- EC50 (human norovirus (HuNoV); [10]): 0.016 µM
- EC90 (human norovirus (HuNoV); [9]): 19 µM
- CC50 ([1]; uninfected cells): > 100 µM
- cytotoxicity (in words) (uninfected cells [4]): did not display significant cytotoxicity; also recorded: without significant cytotoxicity

Compound: CCCCCc1ncnc2c1ccn2[C@@H]1O[C@H](CO)[C@@H](O)[C@H]1O [Compound 11f, 6-Pentyl-9-β-D-ribofuranosyl-7-deazapurine]
- EC50 (human norovirus (HuNoV); [10]): 0.084 µM
- EC90 (human norovirus (HuNoV); Norovirus, HG23, read-out: EC90 (effective concentration to inhibit the replication of the virus by 90%)): > 100 µM
- CC50 ([1]; uninfected cells): > 100 µM

Compound: CCCCCCc1ncnc2c1ccn2[C@@H]1O[C@H](CO)[C@@H](O)[C@H]1O [Compound 11g, 6-Hexyl-9-β-D-ribofuranosyl-7-deazapurine]
- EC50 (human norovirus (HuNoV); [8]): 0.13 µM
- EC90 (human norovirus (HuNoV); [9]): 57.6 µM
- CC50 ([1]; uninfected cells): 62.3 µM

Compound: CC(C)Cc1ncnc2c1ccn2[C@@H]1O[C@H](CO)[C@@H](O)[C@H]1O [Compound 11i, 6-Isobutyl-9-β-D-ribofuranosyl-7-deazapurine]
- EC50 (human norovirus (HuNoV); [8]): 0.002 µM
- EC90 (human norovirus (HuNoV); [9]): > 100 µM
- CC50 ([1]; uninfected cells): > 100 µM

Compound: OC[C@H]1O[C@@H](n2ccc3c(C4CC4)ncnc32)[C@H](O)[C@@H]1O [Compound 11j, 6-Cycloproyl-9-β-D-ribofuranosyl-7-deazapurine]
- EC50 (human norovirus (HuNoV); [11]): 0.205 µM
- EC90 (human norovirus (HuNoV); [12]): > 100 µM
- CC50 (uninfected cells [7]): > 100 µM

Compound: OC[C@H]1O[C@@H](n2ccc3c(C4CCCC4)ncnc32)[C@H](O)[C@@H]1O [Compound 11k, 6-Cyclopentyl-9-β-D-ribofuranosyl-7-deazapurine]
- EC50 (human norovirus (HuNoV); [8]): > 100 µM
- EC90 (human norovirus (HuNoV); [9]): > 100 µM
- CC50 ([1]; uninfected cells): > 100 µM

Compound: OC[C@H]1O[C@@H](n2ccc3c(C4CCCCC4)ncnc32)[C@H](O)[C@@H]1O [Compound 11l, 6-Cyclohexyl-9-β-D-ribofuranosyl-7-deazapurine]
- inhibitory activity against human norovirus (in words) (human norovirus (HuNoV)): potent activity
- EC50 (human norovirus (HuNoV); [11]): 0.18 µM
- EC50 (human norovirus (HuNoV); [10]): 0.18 µM
- EC90 (human norovirus (HuNoV); [9]): 7.24 µM
- CC50 ([1]; uninfected cells): 42.4 µM
- cytotoxicity (in words) (uninfected cells [4]): did not display significant cytotoxicity; also recorded: without significant cytotoxicity

Compound: CC(C)c1ccc(-c2ncnc3c2ccn3[C@@H]2O[C@H](CO)[C@@H](O)[C@H]2O)cc1 [Compound 11m, 6-(4-isoproylphenyl)-9-β-D-ribofuranosyl-7-deazapurine]
- EC50 (human norovirus (HuNoV); [11]): 0.002 µM and < 0.001 µM
- EC90 (human norovirus (HuNoV); [12]): 55 µM
- CC50 (uninfected cells [7]): > 100 µM

Compound: COc1ccc(-c2ncnc3c2ccn3[C@@H]2O[C@H](CO)[C@@H](O)[C@H]2O)cc1 [Compound 11n, 6-(4-Methoxylphenyl)-9-β-D-ribofuranosyl-7-desazapurine]
- EC50 (human norovirus (HuNoV); [8]): 0.094 µM
- EC90 (human norovirus (HuNoV); [9]): > 100 µM
- CC50 ([1]; uninfected cells): > 100 µM

Compound: OC[C@H]1O[C@@H](n2ccc3c(-c4ccccc4)ncnc32)[C@H](O)[C@@H]1O [Compound 11o, 6-Phenyl-9-β-D-ribofuranosyl-7-deazapurine]
- EC50 (human norovirus (HuNoV); [8]): 0.211 µM
- EC90 (human norovirus (HuNoV); [9]): 61.9 µM
- CC50 ([1]; uninfected cells): > 100 µM

Compound: CN(C)c1ccc(-c2ncnc3c2ccn3[C@@H]2O[C@H](CO)[C@@H](O)[C@H]2O)cc1 [Compound 11p, 6-(4-(Dimethylamino)phenyl)-9-β-D-ribofuranosyl-7-deazapurine]
- EC50 (human norovirus (HuNoV); [8]): 92.4 µM
- EC90 (human norovirus (HuNoV); [9]): > 100 µM
- CC50 ([1]; uninfected cells): > 100 µM

Compound: CCc1ccc(-c2ncnc3c2ccn3[C@@H]2O[C@H](CO)[C@@H](O)[C@H]2O)cc1 [Compound 11q, 6-(4-Ethylphenyl)-9-β-D-ribofuranosyl-7-deazapurine]
- EC50 (human norovirus (HuNoV); [8]): 57.8 µM
- EC90 (human norovirus (HuNoV); [9]): > 100 µM
- CC50 ([1]; uninfected cells): > 100 µM

Compound: NC(=O)c1ncn([C@@H]2O[C@H](CO)[C@@H](O)[C@H]2O)n1 [Ribavirin, reference compound]
- EC50 [5]: 3.6 µM
- EC50 (norovirus): 43 µM
- CC50 (in vitro): > 1000 µM

Reference: patent US20230104311A1, “NOVEL 6-SUBSTITUTED 7-DEAZAPURINES AND CORRESPONDING NUCLEOSIDES AS MEDICAMENTS” (KATHOLIEKE UNIVERSITEIT LEUVEN, priority 2020, published 2023)
